Consider 10 molecules from patent US10329270B2, “Heteroaryl compounds as BTK inhibitors and uses thereof” (Merck Patent GmbH, priority 2013, dated 2019).

Test [1] concerns the target T1, full-length human BTK (Homo sapiens, UniProt Q06187).
T1 construct: 2.5× stocks of full-length human BTK (08-080); purchased CarnaBio USA, Inc., Natick, Mass; 08-080
The test can be described thus: Assay A: BTK IC50 Enzyme Assay (microfluidic off-chip mobility shift kinase assay). It is filed as biochemical. As to conditions: full-length human BTK, kinKDR peptide substrate, incubated 90 min at 27 C; read-out: Assay A (Time Dependent BTK Enzyme Assay IC50). In a few lines:
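Off-chip microfluidic mobility shift assay with full-length human BTK; phosphorylated and unphosphorylated peptide substrate were separated by charge/mass on a LabChip 3000.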

Test [2] deals with T2, BTK in human whole blood (Homo sapiens, UniProt Q06187).
T2 construct: endogenous in cells; host or cells: human whole blood
T2 sequence (Q06187 whole entry): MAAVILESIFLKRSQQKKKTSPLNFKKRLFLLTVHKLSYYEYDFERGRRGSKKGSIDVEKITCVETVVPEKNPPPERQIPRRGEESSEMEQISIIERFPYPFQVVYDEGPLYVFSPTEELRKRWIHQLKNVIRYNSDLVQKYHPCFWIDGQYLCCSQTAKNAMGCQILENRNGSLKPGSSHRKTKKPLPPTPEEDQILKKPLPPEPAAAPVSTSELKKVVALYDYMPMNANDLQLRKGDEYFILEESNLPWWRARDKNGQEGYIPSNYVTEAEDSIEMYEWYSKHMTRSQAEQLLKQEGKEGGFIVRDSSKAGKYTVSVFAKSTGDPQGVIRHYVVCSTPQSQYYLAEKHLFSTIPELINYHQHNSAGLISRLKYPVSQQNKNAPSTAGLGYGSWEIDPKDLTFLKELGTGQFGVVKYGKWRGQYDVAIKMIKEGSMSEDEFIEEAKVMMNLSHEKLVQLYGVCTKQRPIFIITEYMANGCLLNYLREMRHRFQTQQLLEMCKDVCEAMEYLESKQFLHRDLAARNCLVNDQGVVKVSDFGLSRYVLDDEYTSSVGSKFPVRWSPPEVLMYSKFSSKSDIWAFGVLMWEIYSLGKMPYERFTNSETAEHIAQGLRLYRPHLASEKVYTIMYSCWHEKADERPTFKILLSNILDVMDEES
The test can be described thus: Assay C: Time Dependent Human Whole Blood IC50 Assay. It is filed as cell-based. Conditions: read-out: Assay C (Time Dependent Human Whole Blood BTK Enzyme Assay IC50). How it is done: Assay C: Time Dependent Human Whole Blood IC50 Assay
Compounds described by embodiments of the present invention were assayed using a human whole blood assay. The data from the same is recorded in Table 2 within the column labeled: “Time Dependent Human Whole Blood BTK Enzyme Assay IC50”.

Test [3] deals with PBMC. Description: Assay B: Time Dependent PMBC IC50 Assay. It is filed as cell-based. How it is done:
Assay B: Time Dependent PMBC IC50 Assay
Compounds described by embodiments of the present invention were assayed using a time dependent PMBC assay. The data from the same is recorded in Table 2 within the column labeled: “Time Dependent PBMC Assay IC50.” These IC50 values are reported in ranges wherein: I<1 uM and II>1 uM.

T1 sequence (Q06187 whole entry): as above

By IC50 is commonly meant the concentration that gives 50% inhibition. Regarding `C=CC(=O)N[C@H]1CCN(c2nc(Nc3ccc(C(=O)NC(C)(C)C)cc3)c(F)cc2C(N)=O)C1` [Compound 3, (S)-2-(3-acrylamidopyrrolidin-1-yl)-6-((4-(tert-butylcarbamoyl)phenyl)amino)-5-fluoronicotinamide], the IC50 in test [1], in test [2] and in test [3] was under 100 nM throughout.
Take `C=CC(=O)N1C[C@@H]2C[C@H]1CN2c1ccc(C(N)=O)c(Nc2ccc(CCN3CCCC3)cc2)n1` [Compound 9, 6-((1S,4S)-5-Acryloyl-2,5-diaza-bicyclo[2.2.1]hept-2-yl)-2-[4-(2-pyrrolidin-1-yl-ethyl)-phenylamino]-nicotinamide]: the half-maximal inhibitory concentration (IC50) in test [1], in test [2] and in test [3] was under 100 nM each time.
With `C=CC(=O)N[C@H]1CCN(c2ccc(C(N)=O)c(Nc3ccc(C(=O)N4CCN(C)CC4)cc3)n2)C1` [Compound 11, (S)-6-(3-acrylamidopyrrolidin-1-yl)-2-((4-(4-methylpiperazine-1 carbonyl)phenyl)amino)nicotinamide], the figures for the half-inhibitory concentration (IC50) in test [1], in test [2] and in test [3] were under 100 nM, 100 to 1000 nM and under 100 nM, respectively.
As for `C=CC(=O)N[C@H]1CCN(c2ccc(C(N)=O)c(Nc3ccc(N4C[C@@H](C)O[C@@H](C)C4)nc3)n2)C1` [Compound 37, 6-((S)-3-Acryloylamino-pyrrolidin-1-yl)-2-[6-(cis-2,6-dimethyl-morpholin-4-yl)-pyridin-3-ylamino]-nicotinamide], the IC50 is under 100 nM in test [1], 100 to 1000 nM in test [2] and under 100 nM in test [3].
`C=CC(=O)N[C@H]1CCN(c2ccc(C(N)=O)c(Nc3ccc(F)nc3)n2)C1` [Compound 46, 6-((S)-3-Acryloylamino-pyrrolidin-1-yl)-2-(6-fluoro-pyridin-3-ylamino)-nicotinamide]: the results for the IC50 in test [1], in test [2] and in test [3] were under 100 nM, 1000 to 5000 nM and under 100 nM, respectively.
For the molecule `C=CC(=O)N1C2C=C(c3ccc(C(N)=O)c(Oc4ccc(Oc5ccccc5)cc4)n3)CC1CC2` (stereo not drawn) [Compound 65, 6-(8-Acryloyl-8-aza-bicyclo[3.2.1]oct-2-en-3-yl)-2-(4-phenoxy-phenoxy)-nicotinamide], the half-maximal inhibitory concentration (IC50) was under 100 nM in test [1], 100 to 1000 nM in test [2] and under 100 nM in test [3].
On to `C=CC(=O)N1CC=C(c2ccc(C(N)=O)c(Oc3ccc(Oc4ccccc4)cc3)n2)CC1` [Compound 69, 1′-acryloyl-6-(4-phenoxyphenoxy)-1′,2′,3′,6′-tetrahydro-[2,4′-bipyridine]-5-carboxamide], for which the IC50 was under 100 nM in test [1], 100 to 1000 nM in test [2] and under 100 nM in test [3].
Turning to `C=CC(=O)N[C@H]1CCN(c2ncc(C(N)=O)c(Nc3ccc(C(=O)NC(C)(C)C)cc3)n2)C1` [Compound 139, (S)-2-(3-acrylamidopyrrolidin-1-yl)-4-((4-(tert-butylcarbamoyl)phenyl)amino)pyrimidine-5-carboxamide], the IC50 in test [1], in test [2] and in test [3] was under 100 nM each time.
Take `C=CC(=O)NC1CN(c2ncc(C(N)=O)c(Oc3ccc(Oc4ccccc4)cc3)n2)C1` [Compound 174, 2-(3-Acryloylamino-azetidin-1-yl)-4-(4-phenoxy-phenoxy)-pyrimidine-5-carboxylic acid amide]: the IC50 is under 100 nM in test [1], 100 to 1000 nM in test [2] and under 100 nM in test [3].
Turning to `C=CC(=O)N[C@H]1CCN(c2nc(Nc3ccc(N4CCC(F)(F)CC4)cc3)c(C(N)=O)cc2F)C1` [Compound 180, 6-((S)-3-Acryloylamino-pyrrolidin-1-yl)-2-[4-(4,4-difluoro-piperidin-1-yl)-phenylamino]-5-fluoro-nicotinamide], the 50% inhibitory concentration (IC50) in test [1] is under 100 nM; in test [2], 100 to 1000 nM; in test [3], under 100 nM.
